Experimental data from PubChem BioAssay AID256 (DTP/NCI, 2004).
Several values for one entry are separate records, joined by “and”; a condition that tells them apart may be missing. Identical values can stand only once. Inconclusive results and toxic doses are left out.

System: CD2F1 mice, L1210 leukemia ip, survival T/C
Experiment: NCI In Vivo Anticancer Drug Screen. Data for tumor model L1210 Leukemia (intraperitoneal) in CD2F1 (CDF1) mice
Settings: higher = longer survival
Outline: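 Antitumor effect is scored in animals hosting a serially transplanted tumor. Values compare compound-dosed animals against vehicle-only controls as a simple quotient.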

[1] = endpoint: mean survival time, dose: 6.25 mg/kg/injection, schedule: Q01DX009 (ip), vehicle: saline with Tween-80
[2] = endpoint: mean survival time, dose: 12.5 mg/kg/injection, schedule: Q01DX009 (ip), vehicle: saline with Tween-80
[3] = endpoint: mean survival time, dose: 25.0 mg/kg/injection, schedule: Q01DX009 (ip), vehicle: saline with Tween-80
[4] = endpoint: mean survival time, dose: 100.0 mg/kg/injection, schedule: Q01DX009 (ip), vehicle: saline with Tween-80
[5] = endpoint: mean survival time, dose: 100.0 mg/kg/injection, schedule: Q01DX009 (ip), vehicle: saline
[6] = endpoint: mean survival time, dose: 200.0 mg/kg/injection, schedule: Q01DX009 (ip), vehicle: saline
[7] = endpoint: mean survival time, dose: 400.0 mg/kg/injection, schedule: Q01DX009 (ip), vehicle: saline
[8] = endpoint: mean survival time, dose: 100.0 mg/kg/injection, schedule: Q04DX003 (ip), vehicle: saline with Tween-80
[9] = endpoint: mean survival time, dose: 200.0 mg/kg/injection, schedule: Q04DX003 (ip), vehicle: saline with Tween-80
[10] = endpoint: mean survival time, dose: 400.0 mg/kg/injection, schedule: Q04DX003 (ip), vehicle: saline with Tween-80
[11] = endpoint: mean survival time, dose: 100.0 mg/kg/injection, schedule: Q01DX001 (ip), vehicle: saline
[12] = endpoint: mean survival time, dose: 200.0 mg/kg/injection, schedule: Q01DX001 (ip), vehicle: saline
[13] = endpoint: mean survival time, dose: 400.0 mg/kg/injection, schedule: Q01DX001 (ip), vehicle: saline
[14] = endpoint: mean survival time, dose: 5.0 mg/kg/injection, schedule: Q01DX009 (ip), vehicle: saline
[15] = endpoint: mean survival time, dose: 200.0 mg/kg/injection, schedule: Q01DX009 (ip), vehicle: saline with Tween-80
[16] = endpoint: mean survival time, dose: 400.0 mg/kg/injection, schedule: Q01DX009 (ip), vehicle: saline with Tween-80

SMILES: CC(C)NC(=O)OCc1c(COC(=O)NC(C)C)c(-c2ccc(Cl)c(Cl)c2)n2c1CCC2
- T/C (endpoint: mean survival time, dose: 6.25 mg/kg/injection, schedule: Q01DX009 (ip), vehicle: distilled water + Tween-80): 115 % of control
- T/C [1]: 103 % of control
- T/C (endpoint: mean survival time, dose: 12.5 mg/kg/injection, schedule: Q01DX009 (ip), vehicle: distilled water + Tween-80): 118 % of control
- T/C [2]: 116 % of control
- T/C [3]: 121 % of control
- T/C [4]: 89 % of control
- T/C (endpoint: median survival time, dose: 50.0 mg/kg/injection, schedule: Q01DX005 (ip), vehicle: saline with Tween-80): 151 % of control
- T/C (endpoint: median survival time, dose: 100.0 mg/kg/injection, schedule: Q01DX005 (ip), vehicle: saline with Tween-80): 179 % of control
- T/C (endpoint: median survival time, dose: 200.0 mg/kg/injection, schedule: Q01DX005 (ip), vehicle: saline with Tween-80): 190 % of control
- T/C (endpoint: median survival time, dose: 800.0 mg/kg/injection, schedule: Q01DX005 (ip), vehicle: saline with Tween-80): 102 % of control

SMILES: COc1cc(/C=C2\SC(=O)NC2=O)ccc1O
- T/C [4]: 105 % of control

SMILES: OC(Cc1ccnc2ccccc12)C(Cl)(Cl)Cl (stereo not given)
- T/C (endpoint: mean survival time, dose: 100.0 mg/kg/injection, schedule: Q04DX003 (ip), vehicle: saline): 103 % of control
- T/C (endpoint: mean survival time, dose: 200.0 mg/kg/injection, schedule: Q04DX003 (ip), vehicle: saline): 103 % of control
- T/C (endpoint: mean survival time, dose: 400.0 mg/kg/injection, schedule: Q04DX003 (ip), vehicle: saline): 97 % of control

SMILES: OC1C(O)C(O)C(O)C(O)C1O (stereo not given)
- T/C [5]: 104 % of control
- T/C [6]: 94 % of control
- T/C [7]: 94 % of control

SMILES: NC(=S)NN=C1CCCCC1
- T/C [1]: 98 % of control
- T/C [2]: 96 % of control
- T/C [3]: 98 % of control

SMILES: CCOC(=O)CCCCCCCCC(=O)Nc1ccc(-n2[nH]c(=O)cc2C)cc1
- T/C [8]: 92 % of control
- T/C [9]: 92 % of control
- T/C [10]: 87 % of control

SMILES: NC1C(O)C(O)C(O)C(O)C1O (stereo not given)
- T/C [11]: 98 % of control
- T/C [12]: 98 % of control
- T/C [13]: 98 % of control

SMILES: O=S(=O)(O)C(I)S(=O)(=O)O
- T/C [11]: 97 % of control
- T/C [12]: 102 % of control
- T/C [13]: 114 % of control

SMILES: COC(=O)CC(NC(=O)C(F)(F)F)C(=O)OC (stereo not given)
- T/C [11]: 108 % of control
- T/C [5]: 94 % of control
- T/C [8]: 97 % of control
- T/C [12]: 104 % of control
- T/C [6]: 94 % of control
- T/C [9]: 97 % of control
- T/C [13]: 98 % of control
- T/C [7]: 100 % of control
- T/C [10]: 103 % of control

SMILES: [CH3][Sb]([CH3])([CH3])([O]C(=O)CF)[O]C(=O)CF
- T/C (endpoint: mean survival time, dose: 1.25 mg/kg/injection, schedule: Q01DX009 (ip), vehicle: saline): 102 % of control
- T/C (endpoint: mean survival time, dose: 2.5 mg/kg/injection, schedule: Q01DX009 (ip), vehicle: saline): 100 % of control
- T/C [14]: 106 % of control

SMILES: COCC(=O)C(C(C)=O)C(c1ccncc1)C(C(C)=O)C(=O)COC (stereo not given)
- T/C [8]: 96 % of control
- T/C [9]: 98 % of control
- T/C [10]: 102 % of control

SMILES: COc1ccc2c(c1OC(C)=O)-c1cc(OC(C)=O)cc3c1C(C2)N(C(=O)CCl)CC3 (stereo not given)
- T/C (endpoint: mean survival time, dose: 25.0 mg/kg/injection, schedule: Q04DX003 (ip), vehicle: DMSO): 101 % of control
- T/C (endpoint: mean survival time, dose: 50.0 mg/kg/injection, schedule: Q04DX003 (ip), vehicle: DMSO): 96 % of control
- T/C (endpoint: mean survival time, dose: 100.0 mg/kg/injection, schedule: Q04DX003 (ip), vehicle: DMSO): 101 % of control

SMILES: Cc1cc(N(CCCl)CCCl)ccc1N=Nc1ccccc1C(=O)O
- T/C (endpoint: mean survival time, dose: 2.0 mg/kg/injection, schedule: Q01DX009 (ip), vehicle: saline with Tween-80): 112 % of control
- T/C (endpoint: mean survival time, dose: 4.0 mg/kg/injection, schedule: Q01DX009 (ip), vehicle: saline with Tween-80): 120 % of control
- T/C (endpoint: mean survival time, dose: 4.0 mg/kg/injection, schedule: Q04DX003 (ip), vehicle: saline with Tween-80): 102 % of control
- T/C [14]: 114 % of control and 106 % of control
- T/C (endpoint: mean survival time, dose: 8.0 mg/kg/injection, schedule: Q01DX009 (ip), vehicle: saline with Tween-80): 120 % of control
- T/C (endpoint: mean survival time, dose: 8.0 mg/kg/injection, schedule: Q04DX003 (ip), vehicle: saline with Tween-80): 109 % of control
- T/C (endpoint: mean survival time, dose: 10.0 mg/kg/injection, schedule: Q01DX001 (ip), vehicle: saline with Tween-80): 106 % of control
- T/C (endpoint: mean survival time, dose: 10.0 mg/kg/injection, schedule: Q01DX009 (ip), vehicle: saline with Tween-80): 114 % of control
- T/C (endpoint: mean survival time, dose: 10.0 mg/kg/injection, schedule: Q01DX009 (ip), vehicle: saline): 115 % of control and 120 % of control
- T/C (endpoint: mean survival time, dose: 10.0 mg/kg/injection, schedule: Q03DX003 (ip), vehicle: saline): 113 % of control
- T/C (endpoint: mean survival time, dose: 16.0 mg/kg/injection, schedule: Q04DX003 (ip), vehicle: saline with Tween-80): 115 % of control
- T/C (endpoint: mean survival time, dose: 20.0 mg/kg/injection, schedule: Q01DX001 (ip), vehicle: saline with Tween-80): 102 % of control
- T/C (endpoint: mean survival time, dose: 20.0 mg/kg/injection, schedule: Q01DX009 (ip), vehicle: saline with Tween-80): 109 % of control
- T/C (endpoint: mean survival time, dose: 20.0 mg/kg/injection, schedule: Q01DX009 (ip), vehicle: saline): 122 % of control
- T/C (endpoint: mean survival time, dose: 32.0 mg/kg/injection, schedule: Q01DX009 (ip), vehicle: saline with Tween-80): 97 % of control
- T/C (endpoint: mean survival time, dose: 40.0 mg/kg/injection, schedule: Q01DX001 (ip), vehicle: saline with Tween-80): 115 % of control and 120 % of control
- T/C (endpoint: mean survival time, dose: 40.0 mg/kg/injection, schedule: Q01DX007 (ip), vehicle: saline): 100 % of control
- T/C (endpoint: mean survival time, dose: 40.0 mg/kg/injection, schedule: Q01DX009 (ip), vehicle: saline): 89 % of control
- T/C (endpoint: mean survival time, dose: 64.0 mg/kg/injection, schedule: Q04DX003 (ip), vehicle: saline with Tween-80): 103 % of control
- T/C (endpoint: mean survival time, dose: 80.0 mg/kg/injection, schedule: Q01DX001 (ip), vehicle: saline with Tween-80): 117 % of control and 91 % of control
- T/C (endpoint: mean survival time, dose: 160.0 mg/kg/injection, schedule: Q01DX001 (ip), vehicle: saline with Tween-80): 102 % of control
- T/C (endpoint: median survival time, dose: 5.0 mg/kg/injection, schedule: Q01DX009 (ip), vehicle: saline): 114 % of control and 105 % of control
- T/C (endpoint: median survival time, dose: 10.0 mg/kg/injection, schedule: Q01DX009 (ip), vehicle: saline): 117 % of control
- T/C (endpoint: median survival time, dose: 20.0 mg/kg/injection, schedule: Q01DX009 (ip), vehicle: saline): 117 % of control
- T/C (endpoint: median survival time, dose: 40.0 mg/kg/injection, schedule: Q01DX009 (ip), vehicle: saline): 114 % of control and 117 % of control

SMILES: Fc1c(F)c(F)c(OP2(Oc3c(F)c(F)c(F)c(F)c3F)=NP(Oc3c(F)c(F)c(F)c(F)c3F)(Oc3c(F)c(F)c(F)c(F)c3F)=NP(Oc3c(F)c(F)c(F)c(F)c3F)(Oc3c(F)c(F)c(F)c(F)c3F)=N2)c(F)c1F
- T/C [4]: 103 % of control
- T/C [8]: 98 % of control
- T/C [15]: 101 % of control
- T/C [9]: 95 % of control
- T/C [16]: 95 % of control
- T/C [10]: 98 % of control

SMILES: COc1cc2cc(c1Cl)N(C)C(=O)CC(OC(=O)C(C)N(C)C(=O)C(C)C)C1(C)OC1C(C)C1CC(O)(NC(=O)O1)C(OC)/C=C/C=C(C)C2 (stereo not given)
- T/C (endpoint: mean survival time, dose: 1.2 micrograms/kg/injection, schedule: Q01DX009 (ip), vehicle: saline + alcohol): 109 % of control
- T/C (endpoint: mean survival time, dose: 2.5 micrograms/kg/injection, schedule: Q01DX009 (ip), vehicle: saline + alcohol): 113 % of control
- T/C (endpoint: mean survival time, dose: 5.0 micrograms/kg/injection, schedule: Q01DX009 (ip), vehicle: saline + alcohol): 116 % of control
- T/C (endpoint: mean survival time, dose: 10.0 micrograms/kg/injection, schedule: Q01DX009 (ip), vehicle: saline + alcohol): 119 % of control

SMILES: N#CC1CCCC[N-]1.[NH-]CC[N-]CC[NH-].[Pt+4] (stereo not given)
- T/C (endpoint: mean survival time, dose: 12.5 mg/kg/injection, schedule: Q01DX009 (ip), vehicle: water): 93 % of control
- T/C (endpoint: mean survival time, dose: 25.0 mg/kg/injection, schedule: Q01DX009 (ip), vehicle: water): 95 % of control
- T/C (endpoint: mean survival time, dose: 50.0 mg/kg/injection, schedule: Q01DX009 (ip), vehicle: water): 97 % of control
- T/C (endpoint: mean survival time, dose: 100.0 mg/kg/injection, schedule: Q01DX009 (ip), vehicle: water): 88 % of control

SMILES: COc1cc2c3cc1Oc1c(OC)c(OC)cc4c1C(Cc1ccc(O)c(c1)Oc1ccc(cc1)CC3N(C)CC2)CN(C)C4 (stereo not given)
- T/C [8]: 101 % of control
- T/C [9]: 93 % of control

SMILES: CCCCCc1ccc(C(C)=O)cc1
- T/C [4]: 103 % of control
- T/C [15]: 103 % of control
- T/C [16]: 88 % of control

SMILES: CC(=O)OC1C(CO)OC2C1Oc1nc(=N)c(F)cn12 (stereo not given)
- T/C (endpoint: mean survival time, dose: 3.13 mg/kg/injection, schedule: Q01DX009 (ip), vehicle: saline): 101 % of control
- T/C (endpoint: mean survival time, dose: 6.25 mg/kg/injection, schedule: Q01DX009 (ip), vehicle: saline): 106 % of control
- T/C (endpoint: mean survival time, dose: 12.5 mg/kg/injection, schedule: Q01DX009 (ip), vehicle: saline): 110 % of control
- T/C (endpoint: mean survival time, dose: 25.0 mg/kg/injection, schedule: Q01DX009 (ip), vehicle: saline): 116 % of control
